From patent US5395823A, “Neuropeptide Y agonists and partial agonists” (Merrell Dow Pharmaceuticals Inc., priority 1993, dated 1995)
pIC50: −log10 of the molar value.

Target: receptors for neuropeptide Y (porcine spleen crude membranes)
Assay: 125I-Bolton-Hunter-neuropeptide Y binding in porcine spleen crude membranes
Settings: competition with 0.1 nM BHNPY, room temperature 2 hr, pH 7.4
Procedure: 145:21-9 (1988). ^125 I-Bolton-Hunter-neuropeptide Y (BHNPY; Amersham) binding was carried out in porcine spleen crude membranes. Membranes from frozen spleen were prepared as described previously for tachykinin peptide binding studies (Buck et al., 1984). An aliquot of membrane preparation (approximately 15 mg tissue) was incubated at room temperature for 2 hr in buffer (pH 7.4) containing the peptide analog, 130 mM NaCl, 2.7 mM KCl, 2 mM MgCl2, 1.8 mM CaCl2, 20 mM HEPES, 4 mg/ml BSA, 40 μg/ml bacitracin, 4 μg/ml leupeptin and […] chymostatin. BHNPY was included in a concentration of 0.1 nM and non-specific binding was determined by the inclusion of 1 μM pNPY. Samples were rapidly filtered over Whatman GF/C filters presoaked overnight in 0.5% histone (type II-AS; Sigma) and washed two times with ice-cold, plain HEPES-salt buffer (pH 7.4). IC50 values for test peptides were calculated from 6 to 10 point competition curves.

Substance: Y--P--S--K--P--D--N--P--G--E--D--A--P--A--E--E--L--S--Y--Y--A--A--L--R--H- -Y--L--N--L--L--T--R--Q--R--Y--# [Example 1]
- pIC50: > 7.30
